Assay results published in the supplement of paper PMC10307832.

Tests used:
Assay in all cases: relative viability (nuclei count vs DMSO), 5 days (fraction); higher = more cells survive
[1] = compound: OCc1c[nH]c2ccccc12 [Indole-3-carbinol] + CC(C)C[C@H](NC(=O)[C@H](Cc1ccccc1)NC(=O)c1cnccn1)B(O)O [Bortezomib] (partner 0.002 µM)
How it was run: (§1)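 Relative viability divides the nuclei count in treated wells by that in vehicle wells. Lung cancer cell lines were seeded in 1536-well plates, dosed by pin tool the next day, and fixed and stained after 5 days in one step with final 0.05% Triton X-100, 1% formaldehyde and 1 ug/ml Hoechst. Dosing was a single drug or a fixed anchor-drug dose plus five library-drug doses (not always all listed) in √10 steps, and values are medians of duplicate plates imaged at 4×.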

[2] = compound: OCc1c[nH]c2ccccc12 [Indole-3-carbinol] + C[C@@H](Oc1cc(-c2cnn(C3CCNCC3)c2)cnc1N)c1c(Cl)ccc(F)c1Cl [Crizotinib] (partner 1 µM)
How it was run: as §1

[3] = compound: OCc1c[nH]c2ccccc12 [Indole-3-carbinol] + CS(=O)(=O)N1CCN(Cc2cc3nc(-c4cccc5[nH]ncc45)nc(N4CCOCC4)c3s2)CC1 [Pictilisib] (partner 1 µM)
How it was run: as §1

[4] = compound: OCc1c[nH]c2ccccc12 [Indole-3-carbinol] + C[C@]1(O)C[C@@H](c2nc(-c3ccc4ccc(-c5ccccc5)nc4c3)c3c(N)nccn32)C1 [Linsitinib] (partner 1 µM)
How it was run: as §1

[5] = compound: OCc1c[nH]c2ccccc12 [Indole-3-carbinol] + Cc1nc(NC(=O)N2CCC[C@H]2C(N)=O)sc1-c1ccnc(C(C)(C)C(F)(F)F)c1 [Alpelisib] (partner 2 µM)
How it was run: as §1

Cell Line	relative viability ([1]; first compound 0.253 µM)	relative viability ([1]; first compound 0.8 µM)	relative viability ([1]; first compound 2.53 µM)	relative viability ([1]; first compound 8 µM)	relative viability ([2]; first compound 0.253 µM)	relative viability ([2]; first compound 0.8 µM)	relative viability ([2]; first compound 2.53 µM)	relative viability ([2]; first compound 8 µM)	relative viability ([3]; first compound 0.253 µM)	relative viability ([3]; first compound 0.8 µM)	relative viability ([3]; first compound 2.53 µM)	relative viability ([3]; first compound 8 µM)	relative viability ([4]; first compound 0.253 µM)	relative viability ([4]; first compound 0.8 µM)	relative viability ([4]; first compound 2.53 µM)	relative viability ([4]; first compound 8 µM)	relative viability ([5]; first compound 0.253 µM)	relative viability ([5]; first compound 0.8 µM)	relative viability ([5]; first compound 2.53 µM)	relative viability ([5]; first compound 8 µM)
NCI-H838	0.842	0.789	0.856	0.913	0.972	0.717	0.97	0.828	0.537	0.431	0.459	0.431	1.09	0.975	1.02	0.951	1.04	1.05	1.01	0.975
NCI-H1355	1.25	1.18	1.2	1.17	1.17	1.08	0.971	1.06	0.324	0.415	0.435	0.428	0.774	0.802	0.764	0.715	0.809	0.875	0.766	0.672
NCI-H1437	0.503	0.532	0.498	0.466	0.959	1.03	0.943	0.9	0.535	0.438	0.466	0.433	0.986	1.16	1.04	0.894	0.928	1.04	0.937	0.811
NCI-H1563	0.951	0.7	0.996	0.774	0.769	0.883	0.866	0.879	0.667	0.611	0.664	0.662	1.24	1.27	1.23	1.08	0.905	0.997	0.921	0.885
NCI-H1651	0.917	0.938	0.98	0.874	0.766	0.841	0.917	0.886	0.613	0.486	0.499	0.554	0.873	1.11	1.06	0.895	0.744	0.97	0.954	0.895
NCI-H1666	0.892	0.873	0.865	0.786	1.11	0.994	1.42	0.892	0.339	0.548	0.539	0.394	0.81	0.867	0.84	0.808	0.804	0.998	0.906	0.916
NCI-H1703	0.274	0.389	0.358	0.453	0.835	0.853	0.991	0.661	–	0.24	0.26	0.253	0.786	0.413	0.665	0.636	0.3	0.4	0.322	0.332
NCI-H1734	0.974	1.11	0.966	0.893	0.72	0.777	0.637	0.632	0.404	0.423	0.492	0.487	0.947	0.872	0.835	0.813	0.692	0.725	0.719	0.674
NCI-H1755	1.02	0.939	0.976	0.995	0.916	0.97	0.862	0.888	0.401	0.318	0.442	0.424	1.03	1.05	0.95	0.959	0.97	0.935	0.907	0.886
NCI-H1792	0.965	0.89	1.03	0.934	0.95	1.01	0.95	0.984	0.217	0.221	0.257	0.245	0.499	0.37	0.506	0.47	0.713	0.68	0.77	0.673
NCI-H1915	0.968	0.881	0.973	0.977	0.881	0.852	0.892	0.924	0.901	0.858	0.949	0.926	1.09	1.1	1.1	1.11	1.05	1.05	1.07	1.03
NCI-H1975	0.409	0.328	0.436	0.365	1	1.13	0.966	0.97	0.293	0.305	0.326	0.288	0.812	1.05	0.964	0.954	0.635	0.734	0.736	0.583
NCI-H1993	1.09	1.38	1.14	1.17	0.873	0.896	0.813	0.944	0.795	0.802	0.808	0.806	0.692	0.793	0.815	0.667	0.723	0.663	0.631	0.674
NCI-H2009	1.14	1.09	0.998	0.933	0.993	1.07	0.953	1	0.842	0.743	0.763	0.837	1.24	1.26	1.17	1.13	1.17	1.23	1.16	1.11
NCI-H2023	0.903	1.02	0.887	0.939	0.716	0.732	0.651	0.631	0.218	0.237	0.23	0.236	0.728	0.667	0.687	0.589	0.587	0.587	0.592	0.626
NCI-H2085	1.07	1.15	1.14	0.967	0.897	0.738	0.832	0.786	0.41	0.389	0.444	0.503	0.828	0.897	0.982	0.779	0.905	1.06	1.05	0.854
